Measurements taken from patent publication US8916553B2 (Bristol-Myers Squibb Company, priority 2010, dated 2014).
pIC50: −log10 of the molar value.

target: Human CYP17 (Homo sapiens (Human), UniProt P05093); assay: CYP17 Total SPA Assay; format: biochemical; settings: microsomes from HEK2 cells stably transfected with CYP17; 3H-Pregnenolone 1 uM; NADPH 2 mM; 45 minutes at room temperature
Experimental: CYP17 Total SPA Assay The assays were performed in U-bottom 384-well optiplates. […] The reaction was initiated by the combination of the microsomes and substrates in wells containing compound. The reaction was incubated at room temperature for 45 minutes and terminated by adding 7.5 μl of 0.2N HCl to each well. […] The plate was sealed and incubated overnight with shaking at 4° C. The beads were allowed to settle in the plate for 1 hour and the plate read on a TOPCOUNT® (Perkin-Elmer) plate reader. […] The final concentration of reagents in the assays are NADPH, 2 mM; 3H-Pregnenolone, 1 uM; microsomes, 1.25 ug/ml; […] Dose response curves were generated to determine the concentration required inhibiting 50% of enzyme activity (IC50). Compounds were dissolved at 10 mM in dimethylsulfoxide (DMSO) and evaluated at eleven concentrations, each in duplicate. IC50 values were derived by non-linear regression analysis. Table 22 below lists the IC50 values for the following Examples of this invention measured in the Total CYP17 SPA Assay hereinabove.

Sequence of Human CYP17 (P05093 whole entry): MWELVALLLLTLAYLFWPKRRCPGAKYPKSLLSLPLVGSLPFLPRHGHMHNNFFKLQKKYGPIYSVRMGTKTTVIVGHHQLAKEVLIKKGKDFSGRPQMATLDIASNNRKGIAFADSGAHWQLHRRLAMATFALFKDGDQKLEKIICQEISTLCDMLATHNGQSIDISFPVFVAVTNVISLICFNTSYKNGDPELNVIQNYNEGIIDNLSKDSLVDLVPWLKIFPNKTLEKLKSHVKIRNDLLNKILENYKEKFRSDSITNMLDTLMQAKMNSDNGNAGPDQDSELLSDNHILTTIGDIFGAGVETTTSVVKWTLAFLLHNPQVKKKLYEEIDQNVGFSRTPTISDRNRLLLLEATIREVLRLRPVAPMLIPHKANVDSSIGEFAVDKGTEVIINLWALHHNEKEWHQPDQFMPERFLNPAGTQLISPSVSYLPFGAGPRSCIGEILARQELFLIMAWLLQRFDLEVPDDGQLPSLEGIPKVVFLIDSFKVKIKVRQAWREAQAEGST

pIC50	SMILES
8.60	COc1cc(NS(C)(=O)=O)ccc1-c1cnccc1C [Example 217, N-(3-methoxy-4-(4-methyl-3-pyridinyl)phenyl)methanesulfonamide]
7.38	Cc1ccncc1-c1ccc(NS(C)(=O)=O)cc1OCC(F)(F)F [Example 24, N-(4-(4-methyl-3-pyridinyl)-3-(2,2,2-trifluoroethoxy)phenyl)methane sulfonamide]
7.32	CS(=O)(=O)Nc1ccc(-c2cncc3ccccc23)c(C(F)(F)F)c1 [Example 241, N-(4-(isoquinolin-4-yl)-3-(trifluoromethyl)phenyl)methanesulfonamide]
6.76	CS(=O)(=O)Nc1ccc(-c2cnccc2Cl)c(OCCF)c1 [Example 236, N-(4-(4-chloropyridin-3-yl)-3-(2-fluoroethoxy)phenyl)methanesulfonamide]
8.49	CS(=O)(=O)Nc1ccc(-c2cncc3ccccc23)c(OC(F)(F)F)c1 [Example 228, N-(4-(isoquinolin-4-yl)-3-(trifluoromethoxy)phenyl)methanesulfonamide]
7.29	CS(=O)(=O)Nc1ccc(-c2cncc3ncccc23)c(OCCF)c1 [Example 239, N-(3-(2-fluoroethoxy)-4-(1,7-naphthyridin-5-yl)phenyl)methanesulfonamide]
7.49	Cc1ccncc1-c1ccc(NS(C)(=O)=O)cc1OCC(F)F [Example 23, N-(3-(2,2-difluoroethoxy)-4-(4-methyl-3-pyridinyl)phenyl)methane sulfonamide]
7.40	CS(=O)(=O)Nc1ccc(-c2cncc3ccccc23)c(OCCF)c1 [Example 234, N-(3-(2-fluoroethoxy)-4-(isoquinolin-4-yl)phenyl)methanesulfonamide]

The remaining lines, values behind:

SMILES	pIC50
COc1cc(NS(C)(=O)=O)ccc1-c1cncnc1C [Example 161, N-(3-methoxy-4-(4-methylpyrimidin-5-yl)phenyl)methanesulfonamide]	6.95
Cc1ccncc1-c1ccc(NS(C)(=O)=O)cc1C(F)(F)F [Example 240, N-(4-(4-methylpyridin-3-yl)-3-(trifluoromethyl)phenyl)methanesulfonamide]	7.59
COc1cc(NS(=O)(=O)C2CC2)ccc1-c1cncnc1C [Example 162, N-(3-methoxy-4-(4-methylpyrimidin-5-yl)phenyl)cyclopropanesulfonamide]	6.77
COc1cc(NS(=O)(=O)CC(F)(F)F)ccc1-c1cncnc1C [Example 167, 2,2,2-trifluoro-N-(3-methoxy-4-(4-methylpyrimidin-5-yl)phenyl)ethanesulfonamide]	6.80
COc1ccc(S(=O)(=O)Nc2ccc(-c3cncc4ccccc34)c(OC)c2)cc1 [Example 147, N-(4-(isoquinolin-4-yl)-3-methoxyphenyl)-4-methoxybenzenesulfonamide]	8.57
COc1cc(NS(=O)(=O)CC(C)C)ccc1-c1cncnc1C [Example 164]	7.00
COc1cc(NS(=O)(=O)c2ccccc2)ccc1-c1cncc2ccccc12 [Example 143, N-(4-(isoquinolin-4-yl)-3-methoxyphenyl)benzenesulfonamide]	8.54
COc1cc(NS(=O)(=O)C2CC2)ccc1-c1cncc2ccccc12 [Example 159, N-(4-(isoquinolin-4-yl)-3-methoxyphenyl)cyclopropanesulfonamide]	8.21
COc1cc(NS(=O)(=O)CCc2ccccc2)ccc1-c1cncnc1C [Example 169, N-(3-methoxy-4-(4-methylpyrimidin-5-yl)phenyl)-2-phenylethanesulfonamide]	6.92
CS(=O)(=O)Nc1ccc(-c2cnccc2C2CC2)c(C(F)(F)F)c1 [Example 243, N-(4-(4-cyclopropylpyridin-3-yl)-3-(trifluoromethyl)phenyl)methanesulfonamide]	7.41
CCCS(=O)(=O)Nc1ccc(-c2cncnc2C)c(OC)c1 [Example 163, N-(3-methoxy-4-(4-methylpyrimidin-5-yl)phenyl)propane-1-sulfonamide]	6.87
COc1cc(NS(C)(=O)=O)ccc1-c1cncnc1C(C)C [Example 220, N-(4-(4-isopropylpyrimidin-5-yl)-3-methoxyphenyl) methanesulfonamide]	6.99
COc1cc(NS(=O)(=O)Cc2ccccc2)ccc1-c1cncnc1C [Example 168, N-(3-methoxy-4-(4-methylpyrimidin-5-yl)phenyl)-1-phenylmethanesulfonamide]	8.02
Cc1cc(NS(C)(=O)=O)ccc1-c1cnccc1Cl [Example 195, N-(4-(4-chloro-3-pyridinyl)-3-methylphenyl)methanesulfonamide]	7.28
COc1cc(NS(=O)(=O)c2ccccn2)ccc1-c1cncc2ccccc12 [Example 160, N-(4-(isoquinolin-4-yl)-3-methoxyphenyl)pyridine-2-sulfonamide]	8.22
COc1cc(NS(C)(=O)=O)ccc1-c1cncnc1OC [Example 245]	7.24
COc1ccc(S(=O)(=O)Nc2ccc(-c3cncnc3C)c(OC)c2)cc1 [Example 170, 4-methoxy-N-(3-methoxy-4-(4-methylpyrimidin-5-yl)phenyl)benzenesulfonamide]	7.25
CCc1ncncc1-c1ccc(NS(C)(=O)=O)cc1OC [Example 218, N-(4-(4-ethylpyrimidin-5-yl)-3-methoxyphenyl) methanesulfonamide]	7.31

system: testosterone levels; assay: 1-Day Cyno PK/PD Study; format: in vivo; settings: cynomolgus monkeys; single oral dose of 5 mg/Kg in 80% PEG-400/water; blood samples over a 24 hour period (FIG. 1)
Experimental: 1-Day Cyno PK/PD Study Protocol
Animals: All procedures involving animals and their care were conducted in conformity with the guidelines that are in compliance with the Bristol-Myers Squibb Institutional Animal Care and Use Committee. Fully mature male cynomolgus monkeys (>4 yrs of age; 5-6 kg) were from an in-house colony. All the monkeys used had chronically implanted femoral vein access ports. For oral studies, all animals were fasted overnight prior to dosing and were fed 4 hr after dosing. All animals had free access to water and were conscious throughout the study.
Drug: For all oral pharmacokinetic studies in cynomolgus monkeys, the tested compound was formulated in polyethylene glycol (PEG 400): water (80:20, v:v) at concentrations of 1-5 mg/mL. […]
Sampling: Blood samples were collected from the femoral port, at 15, 30, and 45 min, and 1, 2, 4, 6, 8, 12, 24, 30, and 48 hr after oral administration. […] The plasma fraction was immediately separated by centrifugation (14,000 rpm, 10 min, 4° C.), frozen on dry ice, and stored at −20° C. until the samples were analyzed.
Analysis of Tested Compound: Plasma samples were thawed and treated with two volumes of acetonitrile containing internal standard. After centrifugation to remove precipitated proteins, an aliquot of supernatant was analyzed by LC/MS/MS. […]

SMILES	testosterone levels
COc1cc(NS(C)(=O)=O)ccc1-c1cnccc1C [Example 217, N-(3-methoxy-4-(4-methyl-3-pyridinyl)phenyl)methanesulfonamide]	reduced
